Patent publication US20110251379A1, “COMPOUNDS USEFUL FOR TREATING NEURODEGENERATIVE DISORDERS” (Satori Pharmaceuticals, Inc., priority 2010, published 2011)
Read-outs that look alike come from different tables or passages of the source.

Tested on: amyloid-beta (1-42) peptide
Experiment: ELISA assay of amyloid-beta (1-42) in conditioned media of 2B7 cells
Format: cell-based
Conditions: for IC50: Aβ-42, 2B7 cells, 5 hours, read-out: IC50 range
Procedure: Compounds of the present invention, and extracts comprising said compounds, may be assayed as inhibitors of amyloid-beta (1-42) peptide in vitro or in vivo. Such assay methods are described in detail in U.S. Pat. No. 6,649,196, the entirety of which is hereby incorporated herein by reference.
In certain embodiments, provided compounds of the present invention, and extracts comprising said compounds, were assayed as inhibitors of amyloid-beta (1-42) peptide in vitro using an ELISA assay.
Capture Plate Prep: • 6E10 was diluted to 5.0 ug/mL in 100 mM NaHCO3 pH 8.2 (10 ug aliquot per 2 mL buffer); • 100 uL capture antibody solution was added to wells of 96 well plate; • Incubated overnight at 4° C. sealed; • Aspirated off capture antibody; and • Blocked with 250 uL of Blocking Buffer for 2-4 hours at rt sealed.
Conditioned Media: • Cultured 2B7 cells in 96 well plate with 250 uL of media per well until confluent; • Prepared serial dilution of compounds in DMSO at 100× the final desired concentration; • Washed wells with 2B7 cells lx with 250 uL of media; • Diluted DMSO stocks 1:100 into media and mix; and • Added 250 μL of media containing compounds (1% DMSO) to wells with 2B7 cells for 5 hours at 37° C.
Elisa Sample Prep: • Diluted conditioned media 1:2 into blocking buffer; • NOTE: If assaying for A-Beta 1-40 or total A-Beta, then diluted above sample 1:10 with a 50/50 mixture of non-conditioned media containing 1% DMSO and blocking buffer.
Standard Curve Sample Prep: • Diluted appropriate A-Beta peptide stock (stored in 1% NH4OH) to 200 μg/mL in blocking buffer; • Prepared a 1:2 serial dilution from the 200 μg/mL sample (150 μL into 150 μL blocking buffer); and • Added equal volume of standard curve samples to non-conditioned media with 1% DMSO.
Overnight Sample Incubation: • Aspirated blocking buffer from blocked plate; • Added 100 μL of samples to wells of plate (samples will be 50% media with 1% DMSO and 50% blocking buffer; and • Incubated overnight at 4° C. sealed.
Addition of Detection Antibody: • Aspirated off samples, wash 2× with 250 μL blocking buffer; and • Added 100 μL detection antibody labeled with HRP at 0.25 ug/mL in blocking buffer for 4 hours at room temperature sealed.
Final Wash and Readout: • Aspirated wells, wash 5× with 250 μL of PBS-T (2 minutes each wash at 30 RPM); • Added 100 μL TMB for 20 minutes; • Added 100 μL of 1M H3PO4; and • Read at 450 nm.
Coating Buffer (100 mM NaHCO3 pH 8.2)
PBS-T (PBS with 0.05% Tween-20)
Blocking Buffer (1% BSA in PBS-T)

[1] = Aβ-42, 20 umol/L, read-out: % Inhibition (range)
[2] = Aβ-42, 100 umol/L, read-out: % Inhibition (range)

CC(=O)O[C@@H]([C@H]1C[C@@H](C)[C@H]2[C@H](O1)[C@H](O)[C@@]1(C)[C@@H]3CC[C@H]4C(C)(C)[C@@H](O[C@H]5CN(CC(F)(F)F)CCO5)CC[C@@]45C[C@@]35CC[C@]21C)C(C)(C)O
IC50 (5 h): ≤ 1 µM

CC(=O)CCC1C[C@@H](C)C2C(O1)[C@H](O)[C@@]1(C)[C@@H]3CC[C@H]4C(C)(C)[C@@H](O)CC[C@@]45C[C@@]35CC[C@]21C (stereo partly drawn)
inhibition at 20 µM [1]: < 25%

CC(=O)N(CC1CC(C)C2C(O1)C(O)C1(C)C3CCC4C(C)(C)C(O)CCC45CC35CCC21C)CC(C)(C)O (stereo not drawn)
IC50: > 10 µM

CC1CC(CNC(C)(C)C)OC2C1C1(C)CCC34CC35CCC(O)C(C)(C)C5CCC4C1(C)C2O (stereo not drawn)
IC50: > 10 µM

CC1CC(CNCc2ccccc2)OC2C1C1(C)CCC34CC35CCC(O)C(C)(C)C5CCC4C1(C)C2O (stereo not drawn)
IC50: > 10 µM

CC(=O)N(Cc1cc(F)cc(F)c1)CC1CC(C)C2C(O1)C(O)C1(C)C3CCC4C(C)(C)C(OC(=O)CN5CCOCC5)CCC45CC35CCC21C (stereo not drawn)
IC50: > 10 µM

C[C@@H]1C=C(C(F)(F)F)OC2C[C@@]3(C)C4CCC5C(C)(C)[C@@H](O)CC[C@@]56C[C@@]46CC[C@]3(C)C21 (stereo partly drawn)
inhibition at 10 µM (Aβ-42, 10 umol/L, read-out: % Inhibition (range)): 25 to 75%

CC1CC(C(O)C(C)(C)O)OC2C1C1(C)CCC34CC35CCC(OC3CN(C(=O)C6CCCCC6)CCO3)C(C)(C)C5CCC4C1(C)C2O (stereo not drawn)
% Inhibition (range) (Aβ-42, 20 umol/L): E (% inhibition of 25-75%)

C[C@@H]1C[C@H]([C@H](O)C(C)(C)O)OC2C1[C@@]1(C)CC[C@@]34C[C@@]35CC[C@H](O)C(C)(C)[C@@H]5CC[C@H]4[C@]1(C)[C@H]2O (stereo partly drawn) [drawing 889]
inhibition at 20 µM [1]: < 25% | IC50: > 10 µM

CC(=O)N(Cc1cc(F)cc(F)c1)CC1CC(C)C2C(O1)C(O)C1(C)C3CCC4C(C)(C)C(OC(=O)C5CNC5)CCC45CC35CCC21C (stereo not drawn) [drawing 856]
IC50: 1 to 10 µM

C[C@@H]1C[C@H](CO)O[C@H]2C1[C@@]1(C)CC[C@@]34C[C@@]35CC[C@H](O[C@@H]3OC[C@@H](O)[C@H](O)[C@H]3O)C(C)(C)[C@@H]5CC[C@H]4[C@]1(C)[C@H]2O (stereo partly drawn)
IC50 (5 h): > 10 µM

CC1CC(CN2CCCCC2=O)OC2C1C1(C)CCC34CC35CCC(O)C(C)(C)C5CCC4C1(C)C2O (stereo not drawn)
IC50: > 10 µM

CC(=O)N(Cc1ccccc1)CC1CC(C)C2C(O1)C(O)C1(C)C3CCC4C(C)(C)C(O)CCC45CC35CCC21C (stereo not drawn) [drawing 801]
IC50: 1 to 10 µM

CC1CC(C(O)C(C)(C)O)OC2C1C1(C)CCC34CC35CCC(OC3CN(C(=O)C6CCC6)CCO3)C(C)(C)C5CCC4C1(C)C2O (stereo not drawn)
IC50: < 10 µM

CC1CC(C(O)C(C)(C)O)OC2C1C1(C)CCC34CC35CCC(OC3CN(C(=O)CN6CCCC6)CCO3)C(C)(C)C5CCC4C1(C)C2O (stereo not drawn)
IC50: 1 to 10 µM

CC1CC(C(O)C(C)(C)O)OC2C1C1(C)CCC34CC35CCC(OC3CN(CCC(=O)O)CCO3)C(C)(C)C5CCC4C1(C)C2O (stereo not drawn)
% Inhibition (range) (Aβ-42, 20 umol/L): E E (% inhibition of 25-75%) | % Inhibition (range) (Aβ-42, 100 umol/L): E E (% inhibition of 25-75%)

CC(=O)OCC1C[C@@H](C)C2C(O1)[C@H](O)[C@@]1(C)[C@@H]3CC[C@H]4C(C)(C)[C@@H](O)CC[C@@]45C[C@@]35CC[C@]21C (stereo partly drawn) [drawing 923]
inhibition at 20 µM [1]: < 25%

CCC(=O)OC(C1CC(C)C2C(O1)C(O)C1(C)C3CCC4C(C)(C)C(OC5OCC(O)C(O)C5O)CCC45CC35CCC21C)C(C)(C)O (stereo not drawn)
IC50: ≤ 1 µM

CC1CC(CN(C)C(=O)C(C)(C)C)OC2C1C1(C)CCC34CC35CCC(O)C(C)(C)C5CCC4C1(C)C2O (stereo not drawn)
IC50: > 10 µM

CC(=O)O[C@@H]([C@H]1C[C@@H](C)[C@H]2[C@H](O1)C(=O)[C@@]1(C)[C@@H]3CC[C@H]4C(C)(C)[C@@H](O[C@H]5CN(CC(N)=O)CCO5)CC[C@@]45C[C@@]35CC[C@]21C)C(C)(C)O [drawing 969]
IC50 (5 h): ≤ 1 µM

C[C@@H]1C[C@H]([C@H](OC(N)=O)C(C)(C)O)OC2C1[C@@]1(C)CC[C@@]34C[C@@]35CC[C@H](O)C(C)(C)[C@@H]5CC[C@H]4[C@]1(C)[C@H]2O (stereo partly drawn)
inhibition at 20 µM [1]: 25 to 75%

CC1CC(CN(C2COC2)S(C)(=O)=O)OC2C1C1(C)CCC34CC35CCC(O)C(C)(C)C5CCC4C1(C)C2O (stereo not drawn)
IC50: > 10 µM

CC(=O)O[C@@H]([C@H]1C[C@@H](C)C2C(O1)[C@H](O)[C@@]1(C)[C@@H]3CC[C@H]4C(C)(C)[C@@H](OC5CN(CC(=O)N(C)C)CCO5)CC[C@@]45C[C@@]35CC[C@]21C)C(C)(C)O (stereo partly drawn) [drawing 947]
IC50 (5 h): ≤ 1 µM

CC(=O)O[C@@H]([C@H]1C[C@@H](C)[C@H]2[C@H](O1)C1(SCCS1)[C@@]1(C)C3CCC4C(C)(C)[C@@H](O)CC[C@]4(C)C3=CC[C@]21C)C(C)(C)O (stereo partly drawn)
IC50 (5 h): 1 to 10 µM

CC(=O)N(Cc1cc(F)cc(F)c1)CC1CC(C)C2C(O1)C(O)C1(C)C3CCC4C(C)(C)C(O)CCC45CC35CCC21C (stereo not drawn) [drawing 839]
IC50: ≤ 1 µM

CC(=O)N(CC1CC1)CC1CC(C)C2C(O1)C(O)C1(C)C3CCC4C(C)(C)C(O)CCC45CC35CCC21C (stereo not drawn)
IC50: > 10 µM

COCO[C@@H]([C@H]1C[C@@H](C)C2=C(O1)[C@H](O)[C@@]1(C)[C@@H]3CC[C@H]4C(C)(C)[C@@H](O[C@@H]5OC[C@@H](O)[C@H](O)[C@H]5O)CC[C@@]45C[C@@]35CC[C@]21C)C(C)(C)O
IC50 (5 h): 1 to 10 µM

CC1CC(CN2CCCC2=O)OC2C1C1(C)CCC34CC35CCC(O)C(C)(C)C5CCC4C1(C)C2O (stereo not drawn)
IC50: > 10 µM

CC(=O)N(Cc1ccncc1)CC1CC(C)C2C(O1)C(O)C1(C)C3CCC4C(C)(C)C(O)CCC45CC35CCC21C (stereo not drawn)
IC50: > 10 µM

CC(=O)N(CC1CC(C)C2C(O1)C(O)C1(C)C3CCC4C(C)(C)C(O)CCC45CC35CCC21C)C(C)c1ccccc1 (stereo not drawn) [drawing 851]
IC50: 1 to 10 µM

CC(=O)O[C@@H]([C@H]1C[C@@H](C)C2C(O1)[C@H](O)[C@@]1(C)[C@@H]3CC[C@H]4C(C)(C)[C@@H](OC5CN(CCN6CCOCC6)CCO5)CC[C@@]45C[C@@]35CC[C@]21C)C(C)(C)O (stereo partly drawn)
IC50 (5 h): ≤ 1 µM

C=C(C)C(OC(C)=O)C1CC(C)C2C(O1)C(O)C1(C)C3CCC4C(C)(C)C(OC5CN(CC(=O)N(C)C)CCO5)CCC45CC35CCC21C (stereo not drawn)
IC50: 1 to 10 µM

CC(=O)O[C@@H]([C@H]1C[C@@H](C)C2C(O1)[C@H](O)[C@@]1(C)[C@@H]3CC[C@H]4C(C)(C)[C@H](N5CCOCC5)CC[C@@]45C[C@@]35CC[C@]21C)C(C)(C)O (stereo partly drawn)
inhibition at 100 µM [2]: < 25%

COC(=O)N(CC1CC(C)C2C(O1)C(O)C1(C)C3CCC4C(C)(C)C(O)CCC45CC35CCC21C)C(C)(C)C (stereo not drawn)
IC50: > 10 µM

CC1CC(C(O)C(C)(C)O)OC2C1C1(C)CCC34CC35CCC(OC3CN(C(=O)Cc6cccnc6)CCO3)C(C)(C)C5CCC4C1(C)C2O (stereo not drawn)
% Inhibition (range) (Aβ-42, 100 umol/L): F (% inhibition of <25%)

CC(=O)O[C@@H]([C@H]1C[C@@H](C)[C@H]2[C@H](O1)[C@H](O)[C@@]1(C)[C@@H]3CC[C@H]4C(C)(C)C(OC(=O)[C@@H]5CCCN5)CC[C@@]45C[C@@]35CC[C@]21C)C(C)(C)O (stereo partly drawn)
IC50 (5 h): ≤ 1 µM

C[C@@H]1C[C@H](C(=O)C(C)(C)O)OC2C1[C@@]1(C)CC[C@@]34C[C@@]35CC[C@H](O[C@@H]3OC[C@@H](O)[C@H](O)[C@H]3O)C(C)(C)[C@@H]5CC[C@H]4[C@]1(C)[C@H]2O (stereo partly drawn)
IC50 (5 h): > 10 µM

CC(=O)O[C@@H]([C@H]1C[C@@H](C)[C@H]2[C@H](O1)[C@H](O)[C@@]1(C)[C@@H]3CC[C@H]4C(C)(C)[C@@H](O[C@H]5CN(CCN(C)C)CCO5)CC[C@@]45C[C@@]35CC[C@]21C)C(C)(C)O
IC50 (5 h): ≤ 1 µM

CC1CC(C(O)C(C)(C)O)OC2C1C1(C)CCC34CC35CCC(OC3CN(C(=O)C6CCN(C)CC6)CCO3)C(C)(C)C5CCC4C1(C)C2O (stereo not drawn)
IC50: 1 to 10 µM

CC(=O)O[C@@H]([C@H]1C[C@@H](C)[C@H]2[C@H](O1)[C@H](O)[C@@]1(C)[C@@H]3CC[C@H]4C(C)(C)[C@@H](O[C@H]5CN(CCO)CCO5)CC[C@@]45C[C@@]35CC[C@]21C)C(C)(C)O
IC50 (5 h): ≤ 1 µM

CC1CC(C(=O)O)OC2C1C1(C)CCC34CC35CCC(O)C(C)(C)C5CCC4C1(C)C2O (stereo not drawn) [drawing 803]
IC50: > 10 µM

CCC(=O)O[C@@H]([C@H]1C[C@@H](C)C2C(O1)[C@H](O)[C@@]1(C)[C@@H]3CC[C@H]4C(C)(C)[C@@H](O)CC[C@@]45C[C@@]35CC[C@]21C)C(C)(C)O (stereo partly drawn) [drawing 908]
IC50 (5 h): > 10 µM | inhibition at 100 µM [2]: 25 to 75%
